Results: ChEMBL document CHEMBL2331280, “Cytotoxic, antitopoisomerase IIα, and anti-HIV-1 activities of triterpenoids isolated from leaves and twigs of Gardenia carinata” (J Nat Prod, 2013)
Activity calls are given as the source filed them. No cut-off for these calls is given here.

Key:
[1] = tested on: Col2; experiment: Cytotoxicity against human Col2 cells after 72 hrs by sulforhodamine B assay; format: functional; settings: Col2, 72 h, read-out: ED50 (the source's name)
[2] = tested on: Human immunodeficiency virus 1; experiment: Antiviral activity against deltaTat/rev deffective HIV-1 MC99 infected in human 1A2 cells assessed as inhibition of syncytia formation after 3 days; format: functional, organism-based; settings: Human immunodeficiency virus 1, MC99, 1A2, 72 h
[3] = tested on: Lu1; experiment: Cytotoxicity against human Lu1 cells after 72 hrs by sulforhodamine B assay; format: functional; settings: Lu1, 72 h, read-out: ED50 (the source's name)
[4] = tested on: HEK293; experiment: Cytotoxicity against human HEK293 cells after 72 hrs by sulforhodamine B assay; format: functional; settings: HEK293, 72 h, read-out: ED50 (the source's name)
[5] = target: Human immunodeficiency virus type 1 reverse transcriptase (Human immunodeficiency virus 1, UniProt Q72547); experiment: Inhibition of HIV-1 reverse transcriptase assessed as decrease in incorporation of [3H]TTP into polyA template
[6] = Cytotoxicity against human 1A2 cells assessed as inhibition of metabolic activity by XTT assay; format: ADME, cell-based
[7] = tested on: KB; experiment: Cytotoxicity against human KB cells after 72 hrs by sulforhodamine B assay; format: functional; settings: read-out: ED50 (the source's name)
[8] = Selectivity index, ratio of IC50 for human 1A2 cells to EC50 for deltaTat/rev deffective HIV-1 MC99 infected in human 1A2 cells; format: toxicity, cell-based; settings: read-out: Ratio IC50/EC50
[9] = tested on: P388; experiment: Cytotoxicity against mouse P388 cells after 48 hrs by sulforhodamine B assay; format: functional; settings: P388, 48 h, read-out: ED50 (the source's name)
[10] = target: Human immunodeficiency virus type 1 reverse transcriptase (Human immunodeficiency virus 1) (UniProt Q72547); experiment: Inhibition of HIV-1 reverse transcriptase assessed as decrease in incorporation of [3H]TTP into polyA template at 200 ug/ml
[11] = Cytotoxicity against rat ASK cells after 72 hrs by sulforhodamine B assay; format: functional; settings: read-out: ED50 (the source's name)
[12] = tested on: MCF7; experiment: Cytotoxicity against human MCF7 cells after 72 hrs by sulforhodamine B assay; format: functional; settings: MCF7, 72 h, read-out: ED50 (the source's name)
[13] = target: DNA topoisomerase 2-alpha (Homo sapiens) (UniProt P11388); experiment: Inhibition of human DNA topoisomerase 2 alpha-mediated supercoiled pBR322 DNA relaxation at 20 uM after 1 hr by agarose gel electrophoresis
Sequence of DNA topoisomerase 2-alpha (Homo sapiens) (P11388 whole entry): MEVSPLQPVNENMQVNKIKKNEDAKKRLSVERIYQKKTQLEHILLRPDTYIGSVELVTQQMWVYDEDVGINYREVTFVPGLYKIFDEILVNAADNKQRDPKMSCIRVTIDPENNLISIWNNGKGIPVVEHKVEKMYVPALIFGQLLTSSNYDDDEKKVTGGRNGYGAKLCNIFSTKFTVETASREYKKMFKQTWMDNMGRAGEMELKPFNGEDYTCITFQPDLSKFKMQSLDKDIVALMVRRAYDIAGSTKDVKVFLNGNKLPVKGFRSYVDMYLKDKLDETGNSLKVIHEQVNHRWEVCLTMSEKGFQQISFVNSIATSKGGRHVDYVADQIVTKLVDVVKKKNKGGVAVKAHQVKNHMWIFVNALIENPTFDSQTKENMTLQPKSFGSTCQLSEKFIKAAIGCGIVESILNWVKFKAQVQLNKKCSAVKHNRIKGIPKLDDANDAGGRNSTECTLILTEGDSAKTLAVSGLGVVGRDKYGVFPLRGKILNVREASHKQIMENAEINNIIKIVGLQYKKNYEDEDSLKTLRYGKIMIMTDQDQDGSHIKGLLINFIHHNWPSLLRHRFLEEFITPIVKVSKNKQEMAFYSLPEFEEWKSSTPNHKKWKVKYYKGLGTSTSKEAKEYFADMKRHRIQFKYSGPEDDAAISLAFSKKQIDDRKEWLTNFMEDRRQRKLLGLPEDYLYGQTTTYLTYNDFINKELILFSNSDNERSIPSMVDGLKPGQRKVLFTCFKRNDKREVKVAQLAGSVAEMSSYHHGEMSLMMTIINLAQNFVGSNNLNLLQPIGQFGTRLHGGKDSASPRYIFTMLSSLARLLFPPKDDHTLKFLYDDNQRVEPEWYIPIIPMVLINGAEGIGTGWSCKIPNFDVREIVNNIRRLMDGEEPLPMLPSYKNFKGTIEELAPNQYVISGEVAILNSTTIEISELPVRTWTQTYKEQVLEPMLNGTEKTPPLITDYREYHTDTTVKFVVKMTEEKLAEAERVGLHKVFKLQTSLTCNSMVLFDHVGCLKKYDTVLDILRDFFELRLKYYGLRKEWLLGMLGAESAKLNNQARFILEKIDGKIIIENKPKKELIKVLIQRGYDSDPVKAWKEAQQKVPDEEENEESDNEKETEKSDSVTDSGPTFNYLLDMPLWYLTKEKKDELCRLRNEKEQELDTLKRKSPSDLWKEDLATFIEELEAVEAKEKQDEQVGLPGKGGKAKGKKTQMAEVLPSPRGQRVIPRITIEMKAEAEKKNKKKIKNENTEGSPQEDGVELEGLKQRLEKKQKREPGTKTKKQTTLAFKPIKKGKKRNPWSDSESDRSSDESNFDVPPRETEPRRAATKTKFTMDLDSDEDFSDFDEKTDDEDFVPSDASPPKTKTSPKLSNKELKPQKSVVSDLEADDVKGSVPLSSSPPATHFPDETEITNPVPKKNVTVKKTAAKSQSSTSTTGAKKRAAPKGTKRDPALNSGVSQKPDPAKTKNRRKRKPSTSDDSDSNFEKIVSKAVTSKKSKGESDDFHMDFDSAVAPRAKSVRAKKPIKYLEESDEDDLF

**Q.** For `C=C(C(=O)O)[C@@H]1CC[C@@H]2[C@]3(CC[C@]4(C)[C@@H]([C@H](C)CC(=O)C=C(C)C)CC[C@@]24C)C[C@]13CCC(=O)O`, which EC50 [1] is on record?
**A.** > 10 µM

**Q.** And the EC50 [2]?
**A.** < 8.3 µM

**Q.** And the EC50 [3]?
**A.** > 10 µM

**Q.** And the EC50 [4]?
**A.** > 10 µM

**Q.** What about the IC50 [5] of the same compound?
**A.** 68.7 µM

**Q.** And the IC50 [6]?
**A.** 57.7 µM

**Q.** What about the EC50 [7] of the same compound?
**A.** > 10 µM

**Q.** And the selectivity ratio [8]?
**A.** > 7

**Q.** And the EC50 [9]?
**A.** > 10 µM

**Q.** And the inhibition [10]?
**A.** 88.1%

**Q.** What about the EC50 [11] of the same compound?
**A.** > 10 µM

**Q.** And the EC50 [12]?
**A.** > 10 µM

**Q.** With `COc1cc([C@@H]2c3cc4c(cc3[C@@H](O[C@@H]3O[C@@H]5CO[C@@H](C)O[C@H]5[C@H](O)[C@H]3O)[C@H]3COC(=O)[C@H]23)OCO4)cc(OC)c1O` as the compound, how does the inhibition [13] read?
**A.** 59%

**Q.** With `CC(C)CC(=O)C[C@@H](C)[C@H]1CC[C@@]2(C)[C@@H]3CC[C@H]4[C@](C)(C(=O)O)[C@@H](O)CC[C@@]45C[C@@]35CC[C@]12C` (relative stereo) as the compound, how does the EC50 [1] read?
**A.** > 10 µM

**Q.** What about the EC50 [2] of the same compound?
**A.** 62.7 µM

**Q.** What about the EC50 [3] of the same compound?
**A.** > 10 µM

**Q.** What about the EC50 [4] of the same compound?
**A.** > 10 µM

**Q.** And the IC50 [6]?
**A.** 72.5 µM

**Q.** And the EC50 [7]?
**A.** > 10 µM

**Q.** What about the selectivity ratio [8] of the same compound?
**A.** 1.2

**Q.** What about the EC50 [9] of the same compound?
**A.** 6.8 µM

**Q.** And the inhibition [10]?
**A.** 1.9%

**Q.** And the EC50 [11]?
**A.** > 10 µM

**Q.** What about the inhibition [13] of the same compound?
**A.** Active

**Q.** What about the EC50 [12] of the same compound?
**A.** > 10 µM

**Q.** For `C=C1C(=O)O[C@@H]2C[C@@H]3[C@]4(CC[C@]5(C)[C@@H]([C@H](C)CC(=O)C=C(C)C)CC[C@@]35C)C[C@]4(CCC(=O)O)[C@H]12` (relative stereo), which EC50 [1] is on record?
**A.** > 10 µM

**Q.** What about the EC50 [3] of the same compound?
**A.** > 10 µM

**Q.** And the EC50 [4]?
**A.** 5.2 µM

**Q.** And the IC50 [5]?
**A.** 85.7 µM

**Q.** And the IC50 [6]?
**A.** < 8.1 µM

**Q.** What about the EC50 [7] of the same compound?
**A.** 7.3 µM

**Q.** And the EC50 [9]?
**A.** 2.9 µM

**Q.** What about the inhibition [10] of the same compound?
**A.** 81.2%

**Q.** And the EC50 [11]?
**A.** > 10 µM

**Q.** What about the inhibition [13] of the same compound?
**A.** Active

**Q.** And the EC50 [12]?
**A.** 7.7 µM

**Q.** Which EC50 [1] does the source give for `C=C1C(=O)O[C@@H]2C[C@@H]3[C@]4(CC[C@]5(C)[C@@H]([C@H](C)CC(=O)CC(C)(C)O)CC[C@@]35C)C[C@]4(CCC(=O)OC)[C@H]12` (relative stereo) here?
**A.** 6.2 µM

**Q.** And the EC50 [3]?
**A.** 7.2 µM

**Q.** What about the EC50 [4] of the same compound?
**A.** 4.1 µM

**Q.** What about the IC50 [6] of the same compound?
**A.** < 15.2 µM

**Q.** What about the EC50 [7] of the same compound?
**A.** 6.8 µM

**Q.** What about the EC50 [9] of the same compound?
**A.** 1.4 µM

**Q.** And the inhibition [10]?
**A.** 35.9%

**Q.** What about the EC50 [11] of the same compound?
**A.** 5.8 µM

**Q.** And the inhibition [13]?
**A.** Active

**Q.** And the EC50 [12]?
**A.** 5.2 µM

**Q.** For `C=C(C(=O)O)[C@@H]1CC[C@@H]2[C@]3(CC[C@]4(C)[C@@H]([C@H](C)CC(=O)C=C(C)C)CC[C@@]24C)C[C@]13CCC(=O)OC` (relative stereo), which EC50 [1] is on record?
**A.** > 10 µM

**Q.** What about the EC50 [2] of the same compound?
**A.** 43 µM

**Q.** And the EC50 [3]?
**A.** > 10 µM

**Q.** What about the EC50 [4] of the same compound?
**A.** > 10 µM

**Q.** And the IC50 [6]?
**A.** 69.5 µM

**Q.** And the EC50 [7]?
**A.** > 10 µM

**Q.** What about the selectivity ratio [8] of the same compound?
**A.** 1.6

**Q.** What about the EC50 [9] of the same compound?
**A.** > 10 µM

**Q.** What about the inhibition [10] of the same compound?
**A.** 63.7%

**Q.** What about the EC50 [11] of the same compound?
**A.** > 10 µM

**Q.** And the EC50 [12]?
**A.** > 10 µM

**Q.** For `C=C1COC(=O)CC[C@]23C[C@]24CC[C@]2(C)[C@@H]([C@H](C)CC(=O)C=C(C)C)CC[C@@]2(C)[C@@H]4CC[C@@H]13` (relative stereo), which EC50 [1] is on record?
**A.** > 10 µM

**Q.** And the EC50 [2]?
**A.** 41.3 µM

**Q.** And the EC50 [3]?
**A.** > 10 µM

**Q.** What about the EC50 [4] of the same compound?
**A.** > 10 µM

**Q.** What about the IC50 [6] of the same compound?
**A.** > 138 µM

**Q.** What about the EC50 [7] of the same compound?
**A.** > 10 µM

**Q.** And the selectivity ratio [8]?
**A.** > 3.4

**Q.** And the EC50 [9]?
**A.** > 10 µM

**Q.** What about the inhibition [10] of the same compound?
**A.** 11.6%

**Q.** And the EC50 [11]?
**A.** > 10 µM

**Q.** What about the EC50 [12] of the same compound?
**A.** > 10 µM

**Q.** What does the source list for `CC(C)CC(=O)C[C@@H](C)[C@H]1CC[C@@]2(C)[C@@H]3CC[C@H]4[C@](C)(C(=O)O)[C@@H](O)C[C@H](O)[C@@]45C[C@@]35CC[C@]12C` [CARINATIN A]?
**A.** EC50 [1]: > 10 µM; EC50 [2]: 15.4 µM; EC50 [3]: > 10 µM; EC50 [4]: > 10 µM; IC50 [6]: 27 µM; EC50 [7]: > 10 µM; selectivity ratio [8]: 1.8; EC50 [9]: > 10 µM; inhibition [10]: 6%; EC50 [11]: > 10 µM; EC50 [12]: > 10 µM

**Q.** Which EC50 [1] does the source give for `C=C(CO)[C@@H]1CC[C@@H]2[C@H](CC[C@]3(C)[C@@H]([C@H](C)CC(=O)C=C(C)C)CC[C@@]23C)C[C@]12CCC(=O)O2` [CARINATIN G] here?
**A.** > 10 µM

**Q.** What about the EC50 [2] of the same compound?
**A.** 13.4 µM

**Q.** What about the EC50 [3] of the same compound?
**A.** > 10 µM

**Q.** And the EC50 [4]?
**A.** > 10 µM

**Q.** What about the IC50 [6] of the same compound?
**A.** 46 µM

**Q.** And the EC50 [7]?
**A.** > 10 µM

**Q.** What about the selectivity ratio [8] of the same compound?
**A.** 3.4

**Q.** And the EC50 [9]?
**A.** 4.9 µM

**Q.** And the inhibition [10]?
**A.** 25.5%

**Q.** What about the EC50 [11] of the same compound?
**A.** > 10 µM

**Q.** What about the inhibition [13] of the same compound?
**A.** Active

**Q.** And the EC50 [12]?
**A.** > 10 µM

**Q.** With `Cc1c2ccncc2c(C)c2c1[nH]c1ccccc12` [ELLIPTECINE] as the compound, how does the EC50 [1] read?
**A.** 2.2 µM

**Q.** What about the EC50 [3] of the same compound?
**A.** 1.1 µM

**Q.** And the EC50 [4]?
**A.** 1.9 µM

**Q.** What about the EC50 [7] of the same compound?
**A.** 2.2 µM

**Q.** And the EC50 [9]?
**A.** 1.9 µM

**Q.** What about the EC50 [11] of the same compound?
**A.** 2.2 µM

**Q.** What about the EC50 [12] of the same compound?
**A.** 2.3 µM

**Q.** For `COc1cc2c(ccc3c4cc(OC)c(OC)cc4c[n+](C)c23)cc1O` [FAGARONINE], which IC50 [5] is on record?
**A.** 26.5 µM

**Q.** Which results are given for `C=C1C(=O)O[C@@H]2C[C@@H]3[C@]4(CC[C@]5(C)[C@@H]([C@H](C)CC(=O)C=C(C)C)CC[C@@]35C)C[C@]4(CCC(=O)OC)[C@H]12` [SECAUBRYOLIDE]?
**A.** EC50 [1]: 5.8 µM; EC50 [3]: 5 µM; EC50 [4]: 3.2 µM; IC50 [6]: < 7.9 µM; EC50 [7]: 2 µM; EC50 [9]: 1 µM; inhibition [10]: 0.4%; EC50 [11]: 4.6 µM; inhibition [13]: Active; EC50 [12]: 4.2 µM

**Q.** Which results are given for `Cc1cn([C@H]2C[C@H](N=[N+]=[N-])[C@@H](CO)O2)c(=O)[nH]c1=O` [ZIDOVUDINE]?
**A.** EC50 [2]: 0.00395 µM; IC50 [6]: > 10000 µM
